# From US10793543B2, “Selective C-KIT kinase inhibitor” (PRECEDO PHARMACEUTICALS CO., LTD, priority 2016, dated 2020)
# Tests used:
# [1] = test system: cells expressing wild-type C-KIT kinase; test: Cell proliferation, C-KIT cells; type: cell-based; settings: cells expressing C-KIT kinase, summary of Table 2
# Source text: (§1) In the present example, the following cells were used: chronic myelogenous leukemia cells K562 (expressing P210 Bcr-Abl mutant gene), human megakaryocytic leukemia cells MEG-01 (expressing P210 Bcr-Abl mutant gene), human peripheral blood basophilic leukemia cells Ku812 (expressing Bcr-Abl mutant gene) (all above cells purchased from ATCC, USA), human gastrointestinal stromal tumor cell lines GIST-T1 cells (expressing wild-type C-KIT gene) (purchased from Cosmo Bio Co., Ltd., Japan), human gastrointestinal stromal tumor cell lines GIST-882 cells (expressing wild-type C-KIT gene) (presented by the Professor Gray Lab, Dana-Farber Cancer Institute, Harvard University, USA), mouse pro-B cells BaF3 (purchased from ATCC, USA).
# (§2) In addition, in the present example, further uses: mouse P210/BaF3 (stably expressing P210 Bcr-Abl mutant gene), mouse Tel-ABL-BaF3 (stably expressing wild-type ABL kinase), mouse Tel-cKit-BaF3 (stably expressing C-KITwild-type kinase), mouse Tel-cKit/V559D-BaF3 (stably expressing C-KIT V559D mutant kinase), mouse Tel-cKit/V559D/V654A-BaF3 (stably expressing C-KIT V559D/V654A mutant kinase), mouse Tel-cKit/N822K-BaF3 (stably expressing C-KIT N822K mutant kinase), mouse Tel-cKit/V654A-BaF3 (stably expressing C-KIT V654A mutant kinase), mouse Tel-cKit/L567P-BaF3 (stably expressing C-KIT L567P mutant kinase), mouse Tel-cKit/T670I-BaF3 (stably expressing C-KIT T670I mutant kinase), mouse Tel-PDGFRα-BaF3 (stably expressing PDGFRα kinase), mouse Tel-PDGFRβ-BaF3 (stably expressing PDGFRβ kinase), mouse Tel-VEGFR2-BaF3 (stably expressing VEGFR2 kinase), mouse Tel-RET-BaF3 (stably expressing RET kinase). The above cell lines were all constructed by our laboratory according to the following method: the kinase region sequences of human P210 Bcr-Abl, ABL, C-KIT, C-KIT V559D, C-KIT V559D/V654A, C-KIT N822K, C-KIT V654A, C-KIT L567P, C-KIT T670I, PDGFRα, PDGFRβ, VEGFR2, RET were amplified respectively by PCR, inserted respectively into MSCV-Puro vectors harboring N-terminal TEL fragment and/or NPM fragment and/or TPR fragment (Clontech), then the vectors were stably transfected into mouse BaF3 cells by retrovirus methods and growth factor IL-3 was removed, eventually obtaining cell lines that are transferred protein (P210 Bcr-Abl, ABL, C-KIT, C-KIT V559D, C-KIT V559D/V654A, C-KIT N822K, C-KIT V654A, C-KIT L567P, C-KIT T670I, PDGFRα, PDGFRβ, VEGFR2, RET)-dependent.
# (§3) The cells were incubated for 72 hours, and then the number of viable cells was quantified with a microplate reader by using CCK-8 Cell Viability Assay Kit (purchased from Bestbio Company, Shanghai, China) (CCK-8 can be reduced by dehydrogenase in living cells to a highly water-soluble yellow formazan product, and the amount of formazan produced is proportional to the number of living cells).
# GIST-T1 cells = test: Cancer cell proliferation, CCK-8, GIST-T1; type: cell-based; settings: Homo sapiens, GISTT1, GIST-T1, KIT WT, 72 hours
# Source text: as §1, §3
# [2] = test system: Tel-cKit-BaF3 cells (KIT WT); test: Cell proliferation, CCK-8, Tel-cKit-BaF3; type: cell-based; settings: Mus musculus, 72 hours
# Source text: as §2, §3
# [3] = test system: Tel-PDGFRβ-BaF3 cells (PDGFRβ); test: Cell proliferation, CCK-8, Tel-PDGFRβ-BaF3; type: cell-based; settings: Mus musculus, 72 hours
# Source text: as §2, §3
# [4] = test system: Tel-PDGFRα-BaF3 cells (PDGFRα); test: Cell proliferation, CCK-8, Tel-PDGFRα-BaF3; type: cell-based; settings: Mus musculus, 72 hours
# Source text: as §2, §3
# [5] = test system: Tel-VEGFR2-BaF3 cells (VEGFR2); test: Cell proliferation, CCK-8, Tel-VEGFR2-BaF3; type: cell-based; settings: Mus musculus, Tel-VEGFR2-BaF3, VEGFR2, 72 hours
# Source text: as §2, §3
# [6] = test system: Tel-RET-BaF3 cells (RET WT); test: Cell proliferation, CCK-8, Tel-RET-BaF3; type: cell-based; settings: Mus musculus, 72 hours
# Source text: as §2, §3
# [7] = test system: Tel-cKit/V654A-BaF3 cells (KIT V654A); test: Cell proliferation, CCK-8, Tel-cKit/V654A-BaF3; type: cell-based; settings: Mus musculus, 72 hours
# Source text: as §2, §3
# [8] = test system: Tel-cKit/N822K-BaF3 cells (KIT N822K); test: Cell proliferation, CCK-8, Tel-cKit/N822K-BaF3; type: cell-based; settings: Mus musculus, 72 hours
# Source text: as §2, §3
# [9] = test system: Tel-cKit/V559D-BaF3 cells (KIT V559D); test: Cell proliferation, CCK-8, Tel-cKit/V559D-BaF3; type: cell-based; settings: Mus musculus, 72 hours
# Source text: as §2, §3
# BaF3 cells = test: Cell proliferation, CCK-8, parental BaF3; type: cell-based; settings: Mus musculus, 72 hours
# Source text: as §1, §3
# [10] = test system: phosphorylation of Bcr-Abl kinase and pathway proteins in K562 cells; test: Effects on cell signaling pathways (phosphorylation), K562; type: cell-based, human; settings: K562, 0.1 μM, 2 hours
# GIST-882 cells = test: Cancer cell proliferation, CCK-8, GIST-882; type: cell-based; settings: Homo sapiens, GIST882, GIST-882, KIT WT, 72 hours
# Source text: as §1, §3
# [11] = test system: Tel-cKit/V559D/V654A-BaF3 cells (KIT V559D/V654A); test: Cell proliferation, CCK-8, Tel-cKit/V559D/V654A-BaF3; type: cell-based; settings: Mus musculus, 72 hours
# Source text: as §2, §3
# [12] = test system: Tel-cKit/L576P-BaF3 cells (KIT L576P); test: Cell proliferation, CCK-8, Tel-cKit/L576P-BaF3; type: cell-based; settings: Mus musculus, 72 hours
# Source text: as §2, §3
# [13] = Acute toxicity assay in mice, single oral gavage; type: in vivo; settings: for Number of death (number of death/number of animals in each group): female mice, 7 days observation
# Experimental: (§4) 1. 4-6 week-old Bal b/c female mice were purchased from Shanghai SLAC Experimental Animal Co., Ltd., and were raised in a SPF-level laboratory. Drinking water and padding were both subjected to aseptic processing via high-pressure disinfection, and all operations of the mice were conducted under aseptic conditions; 10 healthy mice were selected, and were balanced and randomly divided into 5 groups according to their weights.
# 2. Specific Information for Administration
# Route of administration: oral gavage
# Observation period: 7 days.
# 3. Observation Indicators
# Weighing frequency: upon grouping, the day of administration (D0) to the seventh day after administration (D7). Based on the mouse weight on D0 (starting value of 100%), the graph of the relative body weight over time was plotted.
# 3.2. Clinical Symptoms Observation
# Strict observation was carried out within 4 hours after administration, and then observation was carried out twice a day for a total of 7 days. Observation was carried out and abnormal symptoms or phenomena in each of animals were recorded.
# The number of animals died in each of dosage groups during the observation period.
# Comprehensive determination was performed based on animal mortality, clinical symptoms and body weights.
# [14] = test system: Tel-cKit/T670I-BaF3 cells (KIT T670I); test: Cell proliferation, CCK-8, Tel-cKit/T670I-BaF3; type: cell-based; settings: Mus musculus, 72 hours
# Source text: as §2, §3
# [15] = test system: gastrointestinal stromal tumor cell lines GIST-T1; test: Mouse tumor model of GIST-T1 cells; type: in vivo; settings: 100 mg/kg oral daily, Day 28 after administration
# Experimental: as §4, with “conditions;” for “conditions; 10 healthy mice were selected, and were balanced and randomly divided into 5 groups according to their weights.”
# (§5) 2. About 5×10^6 gastrointestinal stromal tumor cell lines GIST-T1 or GIST-882 (purchased from ATCC) were respectively injected subcutaneously at left side back of all mice at Day 0;
# (§6) 5. Mice were sacrificed on Day 36 (for GIST-882 mouse model) or Day 43 (GIST-T1 mouse model) and subcutaneous tumors were taken out and weighed for comparison;
# (§7) 6. Tumor tissue specimens were prepared into protein lysate samples for further usage;
# (§8) 7. Growth trend of subcutaneous tumors from Day 16 to Day 43 was derived, and tumor volume was calculated as length×width×width/2 mm^3.
# [16] = test system: gastrointestinal stromal tumor cell lines GIST-882; test: Mouse tumor model of GIST-882 cells; type: in vivo; settings: GIST-882 model, 100 mg/kg oral daily, Day 21 after administration
# Experimental: as §4, with “conditions;” for “conditions; 10 healthy mice were selected, and were balanced and randomly divided into 5 groups according to their weights.”
# as §5, §6, §7, §8
# [17] = test system: P210/BaF3 cells (P210 Bcr-Abl); test: Cell proliferation, CCK-8, P210/BaF3; type: cell-based; settings: Mus musculus, BaF3, 72 h
# Source text: (§9) In addition, in the present example, further uses: mouse P210/BaF3 (stably expressing P210 Bcr-Abl mutant gene), mouse Tel-ABL-BaF3 (stably expressing wild-type ABL kinase), mouse Tel-cKit-BaF3 (stably expressing C-KITwild-type kinase), mouse Tel-cKit/V559D-BaF3 (stably expressing C-KIT V559D mutant kinase), mouse Tel-cKit/V559D/V654A-BaF3 (stably expressing C-KIT V559D/V654A mutant kinase), mouse Tel-cKit/N822K-BaF3 (stably expressing C-KIT N822K mutant kinase), mouse Tel-cKit/V654A-BaF3 (stably expressing C-KIT V654A mutant kinase), mouse Tel-cKit/L567P-BaF3 (stably expressing C-KIT L567P mutant kinase), mouse Tel-cKit/T670I-BaF3 (stably expressing C-KIT T670I mutant kinase), mouse Tel-PDGFRα-BaF3 (stably expressing PDGFRα kinase), mouse Tel-PDGFRβ-BaF3 (stably expressing PDGFRβ kinase), mouse Tel-VEGFR2-BaF3 (stably expressing VEGFR2 kinase), mouse Tel-RET-BaF3 (stably expressing RET kinase). […]
# as §3
# Ku812 cells (Bcr-Abl) = test: Cancer cell proliferation, CCK-8, Ku812; type: cell-based; settings: Homo sapiens, KU812, 72 h
# Source text: as §1, §3
# [18] = test system: MEG-01 cells (P210 Bcr-Abl); test: Cancer cell proliferation, CCK-8, MEG-01; type: cell-based; settings: Homo sapiens, MEG-01, 72 h
# Source text: as §1, §3
# [19] = test system: Tel-ABL-BaF3 cells (ABL WT); test: Cell proliferation, CCK-8, Tel-ABL-BaF3; type: cell-based; settings: Mus musculus, 72 h
# Source text: as §9, §3
# [20] = test system: K562 cells (P210 Bcr-Abl); test: Cancer cell proliferation, CCK-8, K562; type: cell-based; settings: Homo sapiens, K562, 72 h
# Source text: as §1, §3
Compound,GI50 (GIST-T1 cells) [nM],GI50 [2] [nM],GI50 [3] [nM],GI50 [4] [nM],GI50 [5] [nM],GI50 [6] [nM],GI50 [7] [nM],GI50 [8] [nM],GI50 [9] [nM],GI50 (GIST-882 cells) [nM],GI50 [11] [nM],GI50 [12] [nM],GI50 [14] [nM],GI50 [1] [nM],GI50 (BaF3 cells) [nM],also measured
Cc1ccc(NC(=O)c2ccc(CN3CCN(C)CC3)c(C(F)(F)F)c2)cc1OC1CCN(C(=O)c2ccncc2)CC1 [B],27,170,40,15,7,300,585,130,20,,,,,< 500,> 10000,
Cc1ccc(NC(=O)c2ccc(CN3CCN(C)CC3)c(C(F)(F)F)c2)cc1OC1CCN(C(=O)c2cccnc2)CC1 [Compound A],14,147,52,95,17,390,2260,378,134,67,2450,321,1010,,> 10000,proteins in Bcr-Abl signaling pathways upstream and downstream [10]: very strong inhibitory effects; Number of death (number of death/number of animals in each group) ([13]; 250 mg/kg single oral gavage): ♀: 0/2; Number of death (number of death/number of animals in each group) ([13]; 500 mg/kg single oral gavage): ♀: 0/2; clinical symptoms ([13]; 1000 mg/kg single oral gavage): started to be quiet and lie down around 40 minutes; mice died ([13]; 1000 mg/kg single oral gavage): 1; Number of death (number of death/number of animals in each group) ([13]; 1000 mg/kg single oral gavage): ♀: 1/2; clinical symptoms ([13]; 2000 mg/kg single oral gavage): gait of mice was unstable; mice died ([13]; 2000 mg/kg single oral gavage): 2; Number of death (number of death/number of animals in each group) ([13]; 2000 mg/kg single oral gavage): ♀: 2/2
C=CC(=O)N1CCC(Oc2cc(NC(=O)c3ccc(CN4CCN(C)CC4)c(C(F)(F)F)c3)ccc2C)CC1 [Compound C],30,,42,36,5,490,401,380,36,,,,952,< 500,> 10000,

# The next lines start with results.
GI50 (GIST-T1 cells) [nM],GI50 [2] [nM],GI50 [3] [nM],GI50 [4] [nM],GI50 [5] [nM],GI50 [6] [nM],GI50 [7] [nM],GI50 [8] [nM],GI50 [9] [nM],GI50 (GIST-882 cells) [nM],GI50 [11] [nM],GI50 [12] [nM],GI50 [14] [nM],Compound,GI50 [1] [nM],GI50 (BaF3 cells) [nM],also measured
8,412,,,> 10000,6310,2490,1290,39,14,3000,102,6670,Cc1ccc(NC(=O)c2ccc(CN3CCN(C)CC3)cc2)cc1Nc1nccc(-c2cccnc2)n1 [imatinib],< 500,> 10000,tumor inhibition rate [15]: 72.4%; tumor inhibition rate [16]: 49%
6,47,32,32,5380,2660,365,166,22,17,648,81,2860,Cc1cn(-c2cc(NC(=O)c3ccc(C)c(Nc4nccc(-c5cccnc5)n4)c3)cc(C(F)(F)F)c2)cn1 [nilotinib],< 500,> 10000,GI50 [17]: 12.5 nM; GI50 (Ku812 cells (Bcr-Abl)): 1.2 nM; GI50 [18]: 0.4 nM; GI50 [19]: 26 nM; GI50 [20]: 3 nM
